Data published in BindingDB's records for doi:10.7270/Q2ZP44JJ (Burnham Center For Chemical Genomics, 2009).
pIC50: −log10 of the molar value.

Molecular target: T1, Tyrosine-protein phosphatase non-receptor type 22 (Homo sapiens, UniProt Q9Y2R2)
T1 sequence (Q9Y2R2 whole entry): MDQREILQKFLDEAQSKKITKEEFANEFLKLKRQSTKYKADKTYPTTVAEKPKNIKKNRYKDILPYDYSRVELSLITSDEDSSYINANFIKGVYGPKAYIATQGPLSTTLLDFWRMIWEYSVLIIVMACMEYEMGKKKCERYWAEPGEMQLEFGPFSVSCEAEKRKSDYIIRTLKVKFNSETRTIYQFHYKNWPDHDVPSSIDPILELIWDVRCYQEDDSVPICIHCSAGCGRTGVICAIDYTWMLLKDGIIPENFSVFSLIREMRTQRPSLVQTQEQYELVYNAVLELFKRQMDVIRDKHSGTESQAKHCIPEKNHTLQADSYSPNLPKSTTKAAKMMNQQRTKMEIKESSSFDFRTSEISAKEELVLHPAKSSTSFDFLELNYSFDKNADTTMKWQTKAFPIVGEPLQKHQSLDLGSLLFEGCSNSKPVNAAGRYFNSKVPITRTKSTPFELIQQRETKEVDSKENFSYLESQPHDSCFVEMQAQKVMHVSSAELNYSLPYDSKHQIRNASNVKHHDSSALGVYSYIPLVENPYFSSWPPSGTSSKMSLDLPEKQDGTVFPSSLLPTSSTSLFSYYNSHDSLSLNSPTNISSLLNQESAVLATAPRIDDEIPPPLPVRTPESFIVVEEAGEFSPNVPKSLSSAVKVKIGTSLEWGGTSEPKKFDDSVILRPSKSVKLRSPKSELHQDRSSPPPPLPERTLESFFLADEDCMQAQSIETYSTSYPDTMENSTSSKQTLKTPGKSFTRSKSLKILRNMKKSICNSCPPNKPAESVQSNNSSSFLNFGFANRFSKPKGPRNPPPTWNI
Assay: PubChem AID 2140

## CCOc1ccc2nc(NC(=O)CSc3cc(O)c4c(C)c(C)sc4n3)sc2c1 [2-[(2,3-dimethyl-4-oxidanylidene-5H-thieno[2,3-b]pyridin-6-yl)sulfanyl]-N-(6-ethoxy-1,3-benzothiazol-2-yl)ethanamide]
  pIC50: 4.36
